Assay results: patent US6887896B1, “7-[(7-Alkoxy)-chrom-3-en-6-yl]-heptatrienoic acid and 7-[(3-alkoxy)-5,6-dihydronaphthalen-2-yl]-heptatrienoic acid derivatives having serum glucose reducing activity” (Allergan, Inc., priority 2003, dated 2005)

Legend:
[1] = molecular target: T1, RARα (Homo sapiens, UniProt P10276); assay: ligand binding assay, RARα; conditions: for Kd: Table 9 (Formula F), read-out: RAR α Kd; for Ki: read-out: RAR Bind. Ki α
T1 sequence (P10276 1-462): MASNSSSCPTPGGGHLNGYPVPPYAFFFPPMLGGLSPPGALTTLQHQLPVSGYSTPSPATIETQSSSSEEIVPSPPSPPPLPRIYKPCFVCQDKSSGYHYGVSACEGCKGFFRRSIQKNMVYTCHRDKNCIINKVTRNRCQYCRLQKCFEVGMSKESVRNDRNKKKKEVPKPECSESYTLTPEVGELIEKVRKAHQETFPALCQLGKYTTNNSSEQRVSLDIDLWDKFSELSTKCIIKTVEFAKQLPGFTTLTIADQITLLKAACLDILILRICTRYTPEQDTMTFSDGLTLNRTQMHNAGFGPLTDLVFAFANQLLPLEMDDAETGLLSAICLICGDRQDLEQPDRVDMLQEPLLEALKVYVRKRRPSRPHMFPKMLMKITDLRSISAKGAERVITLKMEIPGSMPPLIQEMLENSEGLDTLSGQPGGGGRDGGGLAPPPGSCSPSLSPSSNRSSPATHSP
Source text: (§1) Specifically, one such assay is a chimeric receptor transactivation assay which tests for agonist-like activity in the R RAPE and RAR7 receptor subtypes, and which is based on work published by Feigner, P. L. and Holm, M (1989) Focus, 112 is described in detail in U.S. Pat. No. 5,455,265. The specification of U.S. Pat. No. 5,455,265 is hereby expressly incorporated by reference. A holoreceptor transactivation assay and a ligand binding assay which measure the antagonist/agonist like activity of the compounds of the invention, or their ability to bind to the several retinoid receptor subtypes, respectively, are described in published PCT Application No. WO WO93/11755 (particularly on pages 30-33 and 37-41) published on Jun. 24, 1993, the specification of which is also incorporated herein by reference. A detailed experimental procedure for holoreceptor transactivations has been described by Heyman et al. Cell 68, 397-406, (1992); Allegretto et al. J. Biol. Chem. 268, 26625-26633, and Mangelsdorf et al. The Retinoids: Biology, Chemistry and Medicine, pp 319-349, Raven Press Ltd., New York, which are expressly incorporated herein by reference. The results obtained in this assay are expressed in EC50 numbers, as they are also in the chimeric receptor transactivation assay. The results of the ligand binding assay are expressed in Ki numbers. (See Cheng et al. Biochemical Pharmacology Vol. 22 pp 3099-3108, expressly incorporated herein by reference.)
(§2) Generally speaking, in the tables disclosing the results of transactivation and binding assays the numbers in parentheses indicate efficacy as a percentage compared to the standard compound, (2E,4E,1′S,2′S)-3-methyl-5-[2′-methyl-2′-(5,5,8,8-tetramethyl-5,6,7,8-tetrahydro-naphthalen-2-yl)cyclopropyl]-penta-2,4-dienoic acid and the other numbers indicate the measured EC50 and K; in nanomolar concentration.

[2] = molecular target: T2, RARβ (Homo sapiens, UniProt P10826); assay: ligand binding assay, RARβ; conditions: for Kd: Table 9 (Formula F), read-out: RAR β Kd; for Ki: read-out: RAR Bind. Ki β
T2 sequence (P10826 1-455): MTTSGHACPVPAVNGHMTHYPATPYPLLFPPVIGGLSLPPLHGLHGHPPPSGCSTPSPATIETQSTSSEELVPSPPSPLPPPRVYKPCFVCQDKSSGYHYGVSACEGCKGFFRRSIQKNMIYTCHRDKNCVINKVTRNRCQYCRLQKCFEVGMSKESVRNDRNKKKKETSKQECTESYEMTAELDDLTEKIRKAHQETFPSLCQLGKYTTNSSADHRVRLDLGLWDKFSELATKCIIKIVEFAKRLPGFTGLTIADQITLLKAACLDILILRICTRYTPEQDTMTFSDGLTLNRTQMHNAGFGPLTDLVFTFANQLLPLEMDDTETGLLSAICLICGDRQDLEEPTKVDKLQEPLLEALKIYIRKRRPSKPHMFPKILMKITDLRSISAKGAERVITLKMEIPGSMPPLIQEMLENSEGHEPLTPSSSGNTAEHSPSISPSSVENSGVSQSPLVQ
Source text: as §1, §2

[3] = molecular target: T3, RARγ (Homo sapiens, UniProt P13631); assay: ligand binding assay, RARγ; conditions: for Kd: Table 9 (Formula F), read-out: RAR γ Kd; for Ki: read-out: RAR Bind. Ki γ
T3 sequence (P13631 1-454): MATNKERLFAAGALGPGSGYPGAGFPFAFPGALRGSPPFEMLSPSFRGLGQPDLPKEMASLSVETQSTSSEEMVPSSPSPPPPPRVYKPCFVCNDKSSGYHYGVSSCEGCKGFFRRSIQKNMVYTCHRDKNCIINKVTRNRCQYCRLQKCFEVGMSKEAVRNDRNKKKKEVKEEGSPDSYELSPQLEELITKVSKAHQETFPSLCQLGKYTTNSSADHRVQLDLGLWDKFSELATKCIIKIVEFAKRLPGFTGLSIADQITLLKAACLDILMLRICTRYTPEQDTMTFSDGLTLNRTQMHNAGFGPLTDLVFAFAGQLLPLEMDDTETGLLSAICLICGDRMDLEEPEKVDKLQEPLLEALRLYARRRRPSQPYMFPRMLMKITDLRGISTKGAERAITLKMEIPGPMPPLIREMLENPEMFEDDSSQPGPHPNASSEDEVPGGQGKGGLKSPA
Source text: as §1, §2

[4] = molecular target: T4, RXRα (Homo sapiens, UniProt P19793); assay: ligand binding assay, RXRα; conditions: for Kd: Table 9 (Formula F), read-out: RXR α Kd; for Ki: read-out: RXR Bind Ki α
T4 construct: expressed in transfected cells
T4 sequence (P19793 1-462): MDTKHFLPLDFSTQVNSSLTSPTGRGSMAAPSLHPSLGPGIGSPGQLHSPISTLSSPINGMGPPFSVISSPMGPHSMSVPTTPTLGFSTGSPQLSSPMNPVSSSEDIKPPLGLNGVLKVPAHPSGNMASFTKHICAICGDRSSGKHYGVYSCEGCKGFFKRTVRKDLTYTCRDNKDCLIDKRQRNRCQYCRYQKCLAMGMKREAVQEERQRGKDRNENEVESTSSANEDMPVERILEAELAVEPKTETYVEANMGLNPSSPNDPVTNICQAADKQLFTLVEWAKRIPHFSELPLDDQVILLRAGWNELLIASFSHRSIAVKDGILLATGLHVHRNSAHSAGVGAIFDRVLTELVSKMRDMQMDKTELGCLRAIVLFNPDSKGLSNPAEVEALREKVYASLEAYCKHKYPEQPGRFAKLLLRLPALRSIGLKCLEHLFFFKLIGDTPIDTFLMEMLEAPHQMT
Source text: as §1, §2

[5] = molecular target: T5, RXRβ (UniProt P28704); assay: ligand binding assay, RXRβ; conditions: for Kd: Table 9 (Formula F), read-out: RXR β Kd; for Ki: read-out: RXR Bind Ki β
T5 sequence (P28704 1-520): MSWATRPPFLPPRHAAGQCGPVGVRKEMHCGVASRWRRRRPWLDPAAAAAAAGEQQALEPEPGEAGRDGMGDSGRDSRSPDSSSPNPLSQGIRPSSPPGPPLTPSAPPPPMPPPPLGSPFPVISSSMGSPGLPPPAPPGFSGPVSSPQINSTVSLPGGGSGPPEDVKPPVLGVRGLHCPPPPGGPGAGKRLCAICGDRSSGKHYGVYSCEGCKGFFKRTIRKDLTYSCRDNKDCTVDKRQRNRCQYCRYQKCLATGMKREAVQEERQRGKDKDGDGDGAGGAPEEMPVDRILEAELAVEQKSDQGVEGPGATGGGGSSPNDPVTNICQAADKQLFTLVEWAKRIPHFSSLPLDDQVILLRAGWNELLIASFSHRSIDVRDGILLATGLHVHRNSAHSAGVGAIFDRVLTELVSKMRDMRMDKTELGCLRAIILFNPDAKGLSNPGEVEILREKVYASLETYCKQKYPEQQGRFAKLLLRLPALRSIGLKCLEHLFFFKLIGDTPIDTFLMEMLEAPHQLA
Source text: as §1, §2

[6] = test system: ob/ob mice; assay: serum glucose, triglycerides and T4 in ob/ob mice, drug mixed in control diet over 7 days; format: in vivo; conditions: 2.5 mg/kg per day in diet
[7] = test system: ob/ob mice; assay: serum glucose, triglycerides and T4 in diabetic mice, oral gavage in corn oil daily for seven days; format: in vivo; conditions: for Glucose Day 0 / Triglycerides Day 0: day 0 (pre-treatment)
[8] = molecular target: T5, RXRβ; assay: holoreceptor transactivation assay, RXRβ; format: cell-based
Source text: as §1
(§3) Efficacy in a transactivation assay is expressed as a percentage of the maximum potency attained by the compound compared to a standard which, in this case, is the compound named (2E,4E,1′S,2′S)-3-methyl-5-[2′-methyl-2′-(5,5,8,8-tetramethyl-5,6,7,8-tetrahydro-naphthalen-2-yl)-cyclopropyl]-penta-2,4-dienoic acid. This standard compound is described in U.S. Pat. No. 6,114,533.
(§4) The specification of this application for patent is organized in several sections in accordance with structural Formulas A through F each of which discloses a group of preferred compounds within the scope of the invention. Tables that disclose the activity of certain exemplary compounds of the invention in the above-described RXR receptor transactivation and binding assays are found in the corresponding sections. […] The transactivation data pertaining to the activation of RXR receptors were obtained in the holoreceptor assay.
as §2

[9] = molecular target: T4, RXRα; assay: holoreceptor transactivation assay, RXRα; format: cell-based
Source text: as §1, §3, §4, §2

[10] = 4 mg/kg, corn oil vehicle (second Table 9)
[11] = 5 mg/kg, corn oil vehicle (Table 7)

CC(/C=C/C(F)=C(/C)c1cc2c(c(Br)c1OC(C)C)C(C)(C)CC=C2C(C)(C)C)=C\C(=O)O [Compound A-175, (2E,4E,6E)-7-(4 Bromo-8-tert-butyl-3-isopropoxy-5,5-dimethyl-5,6 dihydro-naphthalen-2-yl)-6-fluoro-3-methyl-octa-2,4,6-trienoic acid]
Kd [1]: 458 nM
Kd [2]: 280 nM
Kd [3]: 866 nM
Kd [4]: 9 nM
Kd [5]: 31 nM

CCOc1cc2c(cc1\C(C)=C(F)/C=C/C(C)=C/C(=O)O)C(C(C)C)=CC(C)(C)O2 [Compound 124, (2E,4E,6E)-7-(7-Ethoxy-4-isopropyl-2,2-dimethyl-2H-Chromen-6-yl)-6-fluoro-3-methyl-octa-2.46-trienoic acid]
Ki [1]: 523 nM
Ki [2]: 1000 nM
Ki [3]: 3300 nM
Ki [4]: 6 nM
Ki [5]: 42 nM

CC(/C=C/[C@@H]1C[C@]1(C)c1ccc2c(c1)C(C)(C)CCC2(C)C)=C\C(=O)O [Standard compound, (2E,4E,1′S,2′S)-3-methyl-5-[2′-methyl-2′-(5,5,8,8-tetramethyl-5,6,7,8-tetrahydro-naphthalen-2-yl)-cyclopropyl]-penta-2,4-dienoic acid]
Glucose Day 3, 3 h [6]: 107 mg/dL
Glucose Day 6, 3 h [6]: 136 mg/dL
T4 Day 7 [6]: 0.8 µg/dL
Triglycerides Day 3, 3 h [6]: 55 ± 23 mg/dL
Glucose Day 0 ([6]; day 0 (pre-treatment)): 246 mg/dL
Triglycerides Day 0 ([6]; day 0 (pre-treatment)): 92 ± 41 mg/dL
Glucose Day 3, 3 h [7, 10]: 312 mg/dL
Glucose Day 6, 3 h [7, 10]: 291 mg/dL
T4 Day 7 [7, 10]: 0.5 µg/dL
Triglycerides Day 3, 3 h [7, 10]: 309 mg/dL
Glucose Day 0 [7, 10]: 544 mg/dL
Triglycerides Day 0 [7, 10]: 261 mg/dL
Glucose Day 3, 3 h [7, 11]: 301 mg/dL
Glucose Day 6, 3 h [7, 11]: 218 mg/dL
T4 Day 7 [7, 11]: 2.7 µg/dL
Triglycerides Day 3, 3 h [7, 11]: 147 mg/dL
Glucose Day 0 [7, 11]: 389 mg/dL
Triglycerides Day 0 [7, 11]: 149 mg/dL
serum thyroxine levels (in words) ([7]; diabetic mammals): undesirable side effect of reducing serum thyroxine levels

CCOc1cc2c(cc1\C(C)=C/C=C/C(C)=C/C(=O)O)C(C(C)C)=CC(C)(C)O2 [Compound 47, 7-(7-Ethoxy-4-isopropyl-2,2-dimethyl-2H-chromen-6-yl)-3-methyl-octa-2E,4E,6Z-trienoic acid]
EC50 ([8]; holoreceptor transactivation, read-out: RXR Trans. EC50 β): 288 nM
RXR Trans. efficacy (number in parentheses) β ([8]; percentage compared to the standard compound): 6%
Ki [1]: > 10000 nM
Ki [2]: 3900 nM
Ki [4]: 15 nM
Ki [5]: 150 nM

CCCOc1cc2c(cc1\C(C)=C(F)/C=C/C(C)=C/C(=O)O)C(C(C)C)=CC(C)(C)O2 [Compound 125, (2E,4E,6E) 6-Fluoro-7-(4-isopropyl-2,2-dimethyl-7-propoxy-2H-chromen-6-yl)-3-methyl-octa-2,4,6-trienoic acid]
Ki [1]: 12 nM
Ki [2]: 3 nM
Ki [3]: 43 nM
Ki [4]: 8 nM
Ki [5]: 73 nM

CCCCOc1cc2c(cc1\C(C)=C(F)/C=C/C(C)=C/C(=O)O)C(C(C)C)=CC(C)(C)O2 [Compound 126, (2E,4E,6E)-7-(7-Butoxy-4-isopropyl-2,2-dimethyl-2H-chromen-6-yl)-6-fluoro-3-methyl-octa-2,4,6-trienoic acid]
Ki [1]: 860 nM
Ki [2]: 522 nM
Ki [3]: 3000 nM
Ki [4]: 8 nM
Ki [5]: 59 nM

CCCOc1c(\C(C)=C(F)/C=C/C(C)=C/C(=O)O)cc2c(c1Br)C(C)(C)CC=C2C(C)C [Compound A-173, (2E,4E,6E)-7-(4-Bromo-8-isopropyl-5,5-dimethyl-3-propoxy-5,6-dihydro-nahthalen-2-yl)-6-fluoro-3-methyl-octa-2,4,6-trienoic acid]
EC50 ([9]; holoreceptor transactivation, read-out: RXR Trans. EC50 α): 1 nM
Emax ([9]; percentage compared to the standard compound, read-out: RXR Trans. efficacy (number in parentheses) α): 5%
Kd [1]: 91 nM
Kd [2]: 192 nM
Kd [3]: 810 nM
Kd [4]: 2 nM
Kd [5]: 11 nM
